# pIC50: −log10 of the molar value. Like-named read-outs stand apart in the source and are kept apart here.
# What was measured:
# BCG = experiment: microbe, parasite or virus in culture; assay type: cell-based, Mycobacterium bovis BCG; conditions: for pIC50: Mycobacterium tuberculosis variant bovis BCG, BCG, read-out: IC50 in MIC assay
# Mycobacterium bovis BCG = assay type: cell-based; conditions: for difference from control (untreated infected cells) in mROS and BCG survival: THP1 cells or hMDM infected with BCG, 2 mM MET, 10 mM NAC or GSH, 24 hrs; for effect of ROS scavenger on Metformin-induced inhibition of growth of intracellular BCG: infected THP1 cells, 2 mM Metformin, 10 mM scavenger
# [1] = tested on: H37Rv strain of Mycobacterium tuberculosis (MTB); assay type: cell-based
# mycobacterial phagosomes = assay type: cell-based, human
# [2] = tested on: reactive oxygen species (ROS); assay type: cell-based, human
# [3] = tested on: Mycobacterium tuberculosis (MTB); experiment: Acute infection model of MTB in C57BL/6 mice, lung and spleen bacillary load (CFU); assay type: in vivo
# [4] = mice; cited from earlier work
# [5] = 50 mg/Kg oral, 2-4 weeks of treatment
smiles,measurement,setting,value
"CNC1C(OC2C(OC3C(O)C(O)C(NC(=N)N)C(O)C3NC(=N)N)OC(C)C2(O)C=O)OC(CO)C(O)C1O (stereo not shown) [streptomycin, 5-(2,4-diguanidino-3,5,6-trihydroxy-cyclohexoxy)-4-[4,5-dihydroxy-6-(hydroxymethyl)-3-methylamino-tetrahydropyran-2-yl]oxy-3-hydroxy-2-methyl-tetrahydrofuran-3-carbaldehyde]",pIC50,BCG,~6.70
"N[C@@H](CCC(=O)N[C@@H](CS)C(=O)NCC(=O)O)C(=O)O [GSH, glutathione]",difference from control (untreated infected cells) in mROS and BCG survival,Mycobacterium bovis BCG,not significant
same,effect of ROS scavenger on Metformin-induced inhibition of growth of intracellular BCG,Mycobacterium bovis BCG,abolishment
same,difference from control in MTB survival (CFU),[1],not significant
"CC(=O)N[C@@H](CS)C(=O)O [NAC, N-acetylcysteine]",difference from control (untreated infected cells) in mROS and BCG survival,Mycobacterium bovis BCG,not significant
same,effect of ROS scavenger on Metformin-induced inhibition of growth of intracellular BCG,Mycobacterium bovis BCG,abolishment
same,difference from control in MTB survival (CFU),"[1]; […], 2 mM MET, 10 mM NAC or GSH, 24 hrs",not significant
same,effect on Metformin-induced phagosomal acidification,mycobacterial phagosomes,prevented
"CCCCc1oc2ccccc2c1C(=O)c1cc(I)c(OCCN(CC)CC)c(I)c1 [amiodarone, (2-{4-[(2-butyl-1-benzofuran-3-yl)carbonyl]-2,6-diiodophenoxy}ethyl)diethylamine]",direct anti-mycobacterial activity in MIC assay,BCG; in vitro BCG growth,showed inhibition of mycobacterial growth
"CN(C)C(=N)NC(=N)N.Cl [Metformin, N,N-dimethyl imidodicarbonimidic diamide hydrochloride]",time in which inhibition of mycobacterial growth occurred,"Mycobacterium bovis BCG; BCG-infected THP1 cells, 2 mM, no further reduction at later time points",≤ 24 h
same,dose dependence of inhibition of intracellular mycobacteria,"Mycobacterium bovis BCG; BCG-infected THP1 cells, CFU at 24 hrs",dose-dependent inhibition
same,dose dependence of inhibition of intracellular MTB,[1],dose-dependent inhibition
same,"mROS, time- and dose-dependent change",[2],increased significantly
same,"production of cytoplasmic ROS (cROS), CM-H2DCFDA",[2],but not of cytoplasmic ROS (cROS)
same,"production of mitochondrial ROS (mROS), MitoSox",[2],increased
CO[C@H]1C[C@@H]2CC[C@@H](C)[C@@](O)(O2)C(=O)C(=O)N2CCCC[C@H]2C(=O)O[C@H]([C@H](C)C[C@@H]2CC[C@@H](O)[C@H](OC)C2)CC(=O)[C@H](C)/C=C(\C)[C@@H](O)[C@@H](OC)C(=O)[C@H](C)C[C@H](C)/C=C/C=C/C=C/1C [rapamycin],pIC50,BCG,~4.86
C=C(C)[C@H]1Cc2c(ccc3c2O[C@@H]2COc4cc(OC)c(OC)cc4[C@@H]2C3=O)O1 [rotenone],"production of cytoplasmic ROS (cROS), CM-H2DCFDA",[2],upregulated
same,"production of mitochondrial ROS (mROS), MitoSox",[2],upregulated
"Oc1ccc(/C=C/c2cc(O)cc(O)c2)cc1 [Resveratrol, 3,5,4′-trihydroxy-trans-stilbene]",bacilli load in the lung compared to controls,"[3]; 25 mg/Kg RES alone, oral",did not reduce
same,CFU in the lung compared to control,[3]; [5],less CFU
same,CFU in the spleen compared to control,[3]; [5],less CFU
same,Oral LD50,[4],~2000 mg/kg

# From patent publication US9539222B2, “Methods to inhibit intracellular growth of bacteria and to treat bacteria-mediated diseases” (priority 2012, dated 2017)
